We go through 16 compounds from paper PMC7115377 (European Journal of Medicinal Chemistry, 2018).

One data set concerns HeLa cells. The settings on record: microscopy.
For data set [1], the system named is influenza B/Ned/537/05. Put plainly: Influenza B antiviral assay in MDCK cells. The settings on record: Influenza B virus, read-out: mean EC50 anti-influenza B activity. Format: cell-based.
The subject of data set [2] is influenza B/Ned/537/05. As to the kind of experiment: Influenza B antiviral assay in MDCK cells. Format: cell-based. The settings on record: Influenza B virus, read-out: EC50 Influenza B, microscopic method.
For data set [3], the system named is Respiratory syncytial virus (RSV; strain Long). Put plainly: microbe, parasite or virus in culture. It is filed as cell-based. Particulars: human respiratory syncytial virus, HeLa, read-out: EC50 RSV.
The subject of a further data set is influenza B virus. The settings on record: read-out: EC50 influenza B; previous series; ref [21]; cited from earlier work.

Where two headings read alike, the source gives them in different places.

Turning to `NC1=NC2(CCNCC2)N(c2cccc(Cl)c2)C(N)=N1` [Compound 1, 1-(3-Chlorophenyl)-2,4-diamino-1,3,5,9-tetraazaspiro[5.5]undeca-2,4-diene], the “Cytotoxicity MCC” value with HeLa cells is greater than 100 µM.

Take `CC(C)(C)OC(=O)N1CCC2(CC1)N=C(N)N=C(N)N2c1cccc(Cl)c1` [Compound 2, Tert-butyl 1-(3-Chlorophenyl)-2,4-diamino-1,3,5,9-tetraazaspiro[5.5]undeca-2,4-diene-9-carboxylate]: in the data set on HeLa cells, the “Cytotoxicity MCC” value was greater than 100 µM.

In the case of `NC1=NC2(CCN(C(=O)C3CCC3)CC2)N(c2cccc(Cl)c2)C(N)=N1` [Compound 3, 9-Cyclobutylcarbonyl-1-(3-chlorophenyl)-2,4-diamino-1,3,5,9-tetraazaspiro[5.5]undeca-2,4-diene], the “Cytotoxicity MCC” value in the data set with HeLa cells was greater than 100 µM.

For `Cc1ccc(C(=O)N2CCC3(CC2)N=C(N)N=C(N)N3c2cccc(Cl)c2)cc1` [Compound 4, 1-(3-Chlorophenyl)-2,4-diamino-9-(p-tolylcarbonyl)-1,3,5,9-tetraazaspiro[5.5]undeca-2,4-diene], in the data set on influenza B/Ned/537/05 [1], the EC50 was roughly 200 nM. Moreover, the “Cytotoxicity MCC” value in the data set on HeLa cells was no less than 100 µM. In addition, the “CC50 fold higher than corresponding MCC” value with MDCK cells turned out to be 22 fold.

In the case of `NC1=NC2(CCN(C(=O)c3ccc4ccccc4c3)CC2)N(c2cccc(Cl)c2)C(N)=N1` [Compound 5, 1-(3-Chlorophenyl)-2,4-diamino-9-[(naphthalen-2-yl)carbonyl]-1,3,5,9-tetraazaspiro-[5.5]undeca-2,4-diene], the “Cytotoxicity MCC” value with HeLa cells was no less than 100 µM.

As for `NC1=NC2(CCN(C(=O)Nc3ccc(F)cc3)CC2)N(c2cccc(Cl)c2)C(N)=N1` [Compound 6, 1-(3-Chlorophenyl)-2,4-diamino-9-[N-(4-fluorophenyl)carbamoyl]-1,3,5,9-tetraazaspiro-[5.5]undeca −2,4-diene], the EC50 in the data set on influenza B/Ned/537/05 [2] worked out at 350 nM. In the data set on HeLa cells, the “Cytotoxicity MCC” value is no less than 100 µM. The “CC50 fold higher than corresponding MCC” value with MDCK cells was 319 fold.

Regarding `COc1cccc(N2C(N)=NC(N)=NC23CCNCC3)c1` [Compound 7, 2,4-Diamino-1-(3-methoxyphenyl)-1,3,5,9-tetraazaspiro[5.5]undeca-2,4-diene], the “Cytotoxicity MCC” value with HeLa cells is greater than 100 µM.

As for `COc1cccc(N2C(N)=NC(N)=NC23CCN(C(=O)OC(C)(C)C)CC3)c1` [Compound 8, Tert-butyl 2,4-diamino-1-(3-methoxyphenyl)-1,3,5,9-tetraazaspiro[5.5]undeca-2,4-diene-9-carboxylate], the “Cytotoxicity MCC” value in the data set with HeLa cells is greater than 100 µM.

With `CCCCC(=O)N1CCC2(CC1)N=C(N)N=C(N)N2c1cccc(OC)c1` [Compound 9, 2,4-Diamino-1-(3-methoxyphenyl)-9-(1-oxopent-1-yl)-1,3,5,9-tetraazaspiro[5.5]undeca-2,4-diene], in the data set with HeLa cells, the “Cytotoxicity MCC” value is greater than 100 µM.

In the case of `COc1cccc(N2C(N)=NC(N)=NC23CCN(C(=O)c2ccc(C(F)(F)F)cc2C)CC3)c1` [Compound 10, 2,4-Diamino-1-(3-methoxyphenyl)-9-[(2-methyl-4-(trifluoromethyl)phenyl)carbonyl]-1,3,5,9-tetraazaspiro[5.5]undeca-2,4-diene], the “Cytotoxicity MCC” value in the data set with HeLa cells was greater than 100 µM.

As to `CC(C)(C)OC(=O)N1CCC2(CC1)N=C(N)N=C(N)N2Cc1cccc(Cl)c1` [Compound 11, Tert-butyl 1-(3-Chlorobenzyl)-2,4-diamino-1,3,5,9-tetraazaspiro[5.5]undeca-2,4-diene-9-carboxylate], the “Cytotoxicity MCC” value in the data set on HeLa cells was greater than 100 µM.

On to `COCCN1C(N)=NC(N)=NC12CCN(C(=O)NC1CCC(C)CC1)CC2` (centres unmarked) [Compound 18, 2,4-Diamino-9-[(4-methylcyclohexyl)carbamoyl]-1-(2-methoxyethyl)-1,3,5,9-tetraazaspiro-[5.5]undeca-2,4-diene], for which the “Cytotoxicity MCC” value with HeLa cells was greater than 100 µM.

Consider `CCS(=O)(=O)N1CCC2(CC1)N=C(N)N=C(N)N2CCOC` [Compound 20, 2,4-Diamino-9-(ethylsulfonyl)-1-(2-methoxyethyl)-1,3,5,9-tetraazaspiro[5.5]undeca-2,4-diene], for which the “Cytotoxicity MCC” value in the data set on HeLa cells was greater than 100 µM.

As to `COCCN1C(N)=NC(N)=NC12CCN(S(=O)(=O)c1ccccc1)CC2` [Compound 21, 2,4-Diamino-9-(phenylsulfonyl)-1-(2-methoxyethyl)-1,3,5,9-tetraazaspiro[5.5]undeca-2,4-diene], the “Cytotoxicity MCC” value with HeLa cells is greater than 100 µM.

Turning to `NC(=O)c1ncn([C@@H]2O[C@H](CO)[C@@H](O)[C@H]2O)n1` [Ribavirin], the concentration giving a half-maximal response (EC50) in data set [3] was 5800 nM.

Turning to `CC(=O)N[C@H]1[C@H]([C@H](O)[C@H](O)CO)OC(C(=O)O)=C[C@@H]1NC(=N)N` [Zanamivir], in the data set on influenza B virus, the EC50 is 60 nM.

For orientation: EC50 means the concentration giving half of the maximal effect.
